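Cultured in 96-well plates, cells were exposed to test compound for 48 hours across five concentrations. GI50 marks 50% less growth.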 Active and inactive are the calls of the source. No stated cut-off is given here; in the data, active = GI50 up to about 1.1 µM and inactive = higher. Where a SMILES comes first, the peptide text is derived from it. The star is where a group is joined. Boc = CC(C)(C)OC(=O)*; Bn = c1ccc(C*)cc1
Assays:
Experiment in all cases: NCI tumour cell line growth inhibition, 48 h
786-0 = test system: 786-0
COLO 205 = test system: COLO 205
DU-145 = test system: DU-145
HL-60 = test system: HL-60
HT-29 = test system: HT-29
IGROV-1 = test system: IGROV-1
K562 = test system: K562
LOX IMVI = test system: LOX IMVI
MCF7 = test system: MCF7
MDA-MB-435 = test system: MDA-MB-435
MDA-N = test system: MDA-N
NCI-H460 = test system: NCI-H460
PC-3 = test system: PC-3
RPMI-8226 = test system: RPMI-8226
SF-295 = test system: SF-295
SF-539 = test system: SF-539
SNB-19 = test system: SNB-19
UACC-257 = test system: UACC-257
UACC-62 = test system: UACC-62
A498 = test system: A498

Measured: GI50

CCOC(=O)CON=c1c2ccccc2ccc2ccccc12
inactive: 786-0 > 100 µM | COLO 205 > 100 µM | DU-145 > 100 µM | HL-60 > 100 µM | HT-29 > 100 µM | IGROV-1 > 100 µM | K562 > 100 µM | LOX IMVI > 100 µM | MCF7 > 100 µM | MDA-MB-435 > 100 µM | MDA-N > 100 µM | NCI-H460 > 100 µM | PC-3 > 100 µM | RPMI-8226 > 100 µM | SF-295 > 100 µM | SF-539 > 100 µM | SNB-19 > 100 µM | UACC-257 > 100 µM | UACC-62 > 100 µM

COc1c(C)c(C/C=C(\C)CC/C=C(\C)CC/C=C(\C)CCC=C(C)C)c(OC)c2ccccc12
inactive: 786-0 > 100 µM | COLO 205 > 100 µM | DU-145 > 100 µM | HT-29 > 100 µM | IGROV-1 37.2 µM | K562 > 100 µM | LOX IMVI 70 µM | MCF7 > 100 µM | MDA-MB-435 > 100 µM | MDA-N > 100 µM | NCI-H460 39.7 µM | PC-3 > 100 µM | SF-295 > 100 µM | SF-539 > 100 µM | SNB-19 > 100 µM | UACC-257 > 100 µM | UACC-62 > 100 µM

CCOC(=O)CCCn1cc(C(=O)OC)nn1
inactive: 786-0 > 100 µM | COLO 205 > 100 µM | DU-145 > 100 µM | HT-29 > 100 µM | IGROV-1 > 100 µM | LOX IMVI > 100 µM | MCF7 > 100 µM | MDA-MB-435 > 100 µM | MDA-N > 100 µM | NCI-H460 > 100 µM | PC-3 > 100 µM | SF-295 46.5 µM | SF-539 > 100 µM | SNB-19 > 100 µM | UACC-257 > 100 µM | UACC-62 > 100 µM

CCCCCc1c2nc(c(CCCCC)c3ccc([nH]3)c(CCCCC)c3nc(c(CCCCC)c4ccc1[nH]4)C=C3)C=C2
inactive: 786-0 > 100 µM | COLO 205 > 100 µM | DU-145 > 100 µM | HL-60 > 100 µM | HT-29 > 100 µM | IGROV-1 > 100 µM | K562 > 100 µM | LOX IMVI > 100 µM | MCF7 > 100 µM | MDA-MB-435 > 100 µM | MDA-N > 100 µM | NCI-H460 > 100 µM | PC-3 > 100 µM | RPMI-8226 > 100 µM | SF-295 > 100 µM | SF-539 > 100 µM | SNB-19 > 100 µM | UACC-257 > 100 µM | UACC-62 > 100 µM

NC(=O)c1ncn(C2CCC(CP(=O)(O)O)C2)c1N (stereo unspecified)
inactive: 786-0 > 100 µM | COLO 205 > 100 µM | DU-145 > 100 µM | HT-29 > 100 µM | IGROV-1 > 100 µM | LOX IMVI > 100 µM | MCF7 > 100 µM | MDA-MB-435 > 100 µM | MDA-N > 100 µM | NCI-H460 > 100 µM | PC-3 > 100 µM | RPMI-8226 > 100 µM | SF-295 > 100 µM | SF-539 > 100 µM | SNB-19 > 100 µM | UACC-257 > 100 µM | UACC-62 > 100 µM

COC(=O)C1C(OC(=O)C(Cl)(c2ccccc2)c2ccccc2)CC2CCC1N2C (stereo unspecified)
inactive: 786-0 > 100 µM | COLO 205 > 100 µM | DU-145 > 100 µM | HL-60 > 100 µM | HT-29 > 100 µM | IGROV-1 > 100 µM | K562 > 100 µM | LOX IMVI > 100 µM | MCF7 > 100 µM | MDA-MB-435 > 100 µM | MDA-N > 100 µM | PC-3 > 100 µM | RPMI-8226 > 100 µM | SF-295 > 100 µM | SF-539 > 100 µM | SNB-19 > 100 µM | UACC-257 > 100 µM | UACC-62 > 100 µM

COCn1cnc2c(=O)nc(SC)n(-c3ccccc3)c21
inactive: 786-0 > 100 µM | A498 > 100 µM | COLO 205 > 100 µM | DU-145 > 100 µM | HL-60 > 100 µM | HT-29 > 100 µM | IGROV-1 > 100 µM | K562 > 100 µM | LOX IMVI > 100 µM | MCF7 > 100 µM | MDA-MB-435 > 100 µM | MDA-N > 100 µM | RPMI-8226 > 100 µM | SF-295 > 100 µM | SF-539 > 100 µM | SNB-19 > 100 µM | UACC-257 > 100 µM | UACC-62 > 100 µM

CC(=O)NC1=C(NCCCl)C(=O)c2ccccc2C1=O
inactive: 786-0 50.5 µM | COLO 205 28.4 µM | DU-145 30.5 µM | HL-60 > 10 µM | HT-29 26.4 µM | IGROV-1 39.8 µM | K562 27.9 µM | MCF7 35.2 µM | MDA-MB-435 16.6 µM | MDA-N 21.4 µM | NCI-H460 32.1 µM | PC-3 22.3 µM | RPMI-8226 40.9 µM | SF-295 37.4 µM | SF-539 40.8 µM | SNB-19 58.3 µM | UACC-257 15 µM | UACC-62 20 µM

CCCc1nc2c(n1CC)C(=O)c1ccccc1C2=O
inactive: 786-0 > 100 µM | COLO 205 35.5 µM | DU-145 74.5 µM | HL-60 44.4 µM | HT-29 18.5 µM | IGROV-1 27 µM | K562 31.1 µM | MCF7 51.1 µM | MDA-MB-435 17.5 µM | MDA-N 20 µM | NCI-H460 37.2 µM | PC-3 34.2 µM | RPMI-8226 31.3 µM | SF-295 56 µM | SF-539 63.5 µM | SNB-19 86.9 µM | UACC-257 18 µM | UACC-62 26 µM

COc1ccc2c(=O)cc(-c3ccc(OC)c(OC)c3OC)oc2c1
inactive: 786-0 > 100 µM | COLO 205 > 71.8 µM | DU-145 > 100 µM | HL-60 30.1 µM | HT-29 98.9 µM | IGROV-1 > 83.4 µM | K562 37.1 µM | LOX IMVI > 75.7 µM | MDA-MB-435 > 100 µM | MDA-N 95.3 µM | NCI-H460 99.3 µM | PC-3 60.4 µM | RPMI-8226 16.9 µM | SF-295 48.1 µM | SF-539 > 57.3 µM | SNB-19 > 60.4 µM | UACC-257 > 100 µM | UACC-62 48.8 µM

COC(=O)C(CC(C)C)NC(=O)CNC(=O)C(Cc1ccc(OCc2ccccc2)cc1)NC(=O)C(COCc1ccccc1)NC(=O)OC(C)(C)C (stereo unspecified) (Boc-S(Bn)Y(Bn)GL-OMe; configuration not given here)
inactive: 786-0 > 100 µM | COLO 205 > 100 µM | DU-145 > 100 µM | HL-60 4.56 µM | HT-29 > 100 µM | IGROV-1 > 100 µM | K562 3.49 µM | LOX IMVI 58.5 µM | MCF7 > 100 µM | MDA-MB-435 > 100 µM | MDA-N > 100 µM | NCI-H460 > 100 µM | PC-3 > 100 µM | RPMI-8226 9.51 µM | SF-295 > 100 µM | SF-539 > 100 µM | SNB-19 > 100 µM | UACC-62 > 100 µM
